# In patent US20250195490A1, “ALPHA-METHYLENE AND AMINOMETHYL LACTONES AND LACTAMS FOR TREATMENT OF CLOSTRIDIOIDES DIFFICILE INFECTION (CDI)” (Purdue Research Foundation, priority 2022, published 2025):
# Like-named read-outs stand apart in the source and are kept apart here.
# Assays:
# [1] = test system: hypervirulent Clostridioides difficile strains; test: MIC against hypervirulent Clostridioides difficile strains; format: cell-based
# Experimental: (§1) The antibacterial activity of compounds 48, 50, 51, 61 and 85 against a panel of Clostridioides difficile strains was evaluated. A bacterial solution equivalent to 0.5 McFarland standard was prepared and diluted in brain heart infusion broth supplemented with hemin and vitamin K. Compounds and control drugs were added in the first row of 96-well plates and serially diluted with media containing bacteria (to achieve a concentration gradient ranging from 128 to 1 μg/mL). Plates were then incubated anaerobically at […] for 48 hours.
# [2] = test system: clinically important Clostridioides difficile strains; test: MIC against clinically important Clostridioides difficile strains; format: cell-based; details: Clostridioides difficile, read-out: MIC
# Experimental: as §1
# L. gasseri = test: MIC against human normal gut microbiota: L. gasseri; format: cell-based, Lactobacillus gasseri; details: Lactobacillus gasseri; L. gasseri HM 407; read-out: MIC
# Text: (§2) The activity of the selected lactones against the human gut microbiota was also examined. Microbiota interfere with C. difficile's ability to colonize the gastrointestinal tract and subsequently cause infection. Many antibiotics inhibit/kill the endogenous microflora, which permits enhanced colonization by C. difficile and infection. Three different bacterial species that are present in the gut microflora were used in this experiment; Bifidobacterium (anaerobic Gram-positive bacteria), Bacteroides (anaerobic Gram-negative bacteria) and Lactobacillus (microaerophilic Gram-positive bacteria). Ideal compounds/drugs are those with selective antibacterial activity against C. difficile so as to protect the indigenous microflora present in the GI tract from being damaged/killed (which will exacerbate infections caused by C. difficile).
# (§3) Bifidobacterium and Bacteroides were first grown for 48 hours at 37° C., anaerobically, using brain heart infusion supplemented (BHIS) agar (brain heart infusion agar supplemented with hemin, vitamin K and L-cysteine). Lactobacillus was cultivated on MRS agar and incubated in the presence of 5% CO2 for 48 hours at 37° C. Each bacterium was suspended in phosphate-buffered saline (PBS) to achieve 0.5 McFarland standard and subsequently diluted in brain heart infusion supplemented broth (for Bifidobacterium and Bacteroides) or in MRS broth (for Lactobacillus) to achieve a bacterial inoculum of approximately 5×10^5 CFU/mL. Bacteria were then seeded in 96-well plates containing serial dilutions of the compounds and incubated for 48 hours. MICs reported in Table 4 are the minimum concentration of compound/control drug that inhibited the visual growth of bacteria.
# L. casei = test: MIC against human normal gut microbiota: L. casei; format: cell-based, Lactobacillus casei; details: Lacticaseibacillus casei; L. casei HM 334; read-out: MIC
# Text: as §2, §3
# L. reuteri = test: MIC against human normal gut microbiota: L. reuteri; format: cell-based, Lactobacillus reuteri; details: Limosilactobacillus reuteri; L. reuteri HM 120; read-out: MIC
# Text: as §2, §3
# L. crispatus = test: MIC against human normal gut microbiota: L. crispatus; format: cell-based, Lactobacillus crispatus; details: Lactobacillus crispatus, read-out: MIC
# Text: as §2, §3
# Ba. fragilis = test: MIC against human normal gut microbiota: Bacteroides fragilis; format: cell-based
# Text: as §2, §3
# Ba. dorsei = test: MIC against human normal gut microbiota: Bacteroides dorsei; format: cell-based
# Text: as §2, §3
# Bi. breve = test: MIC against human normal gut microbiota: Bifidobacterium breve; format: cell-based; details: Bifidobacterium breve; Bi. breve HM 856; read-out: MIC
# Text: as §2, §3
# Bi. longum = test: MIC against human normal gut microbiota: Bifidobacterium longum; format: cell-based; details: Bifidobacterium longum; Bi. longum HM 848; read-out: MIC
# Text: as §2, §3
# Clostridioides difficile [3] = details: cited from earlier work
# Clostridioides difficile [4] = test: MIC by broth microdilution against Clostridioides difficile (Table 1); format: cell-based; details: Clostridioides difficile, BAA1870; anaerobic, 48 hours; strain BAA-1870; read-out: MIC Clostridioides difficile
# Experimental: Method: The minimum inhibitory concentration (MIC) of the compounds and control drugs, linezolid (antibiotic), vancomycin (antibiotic), 5-fluorocytosine (5-FC, antifungal drug), and fluconazole (antifungal drug) was determined using the broth microdilution method according to the guidelines outlined by the Clinical and Laboratory Standards Institute (CLSI) against clinically relevant bacterial (methicillin-resistant Staphylococcus aureus (MRSA), vancomycin-resistant Enterococcus faecalis (VRE), vancomycin-resistant Enterococcus faecium (VRE), Clostridioides difficile and Escherichia coli) and fungal (Candida albicans) strains. A solution equivalent to 0.5 McFarland standard was prepared from each strain and diluted in cation-adjusted Mueller-Hinton broth (for S. aureus and E. coli), tryptone soy broth (for E. faecalis), or brain heart infusion broth (for E. faecium) to achieve a bacterial inoculum of about 5×10^5 CFU/mL. C. difficile strains were cultured in brain heart infusion broth supplemented with hemin and vitamin K. C. albicans was diluted in RPMI medium supplemented with 3-(N-morpholino) propanesulfonic acid to achieve a fungal concentration of about 1.5×10^3 CFU/mL. Compounds and control drugs were added in the first row of the 96-well plates and diluted with media containing bacteria (to achieve a concentration gradient ranging from 128 to 1 μg/mL). For MRSA, VRE, and E. coli strains, plates were then incubated aerobically at 37° C. for at least 18 hours. C. albicans was incubated aerobically at 37° C. for 24 hours. Plates containing C. difficile were incubated anaerobically at […] for 48 hours.
# normal gut microflora = test: Activity against normal human gut microflora (panel statement); format: cell-based
# Text: as §2
# Bifidobacterium and Bacteroides were first grown for 48 hours at 37° C., anaerobically, using brain heart infusion supplemented (BHIS) agar (brain heart infusion agar supplemented with hemin, vitamin K and L-cysteine). Lactobacillus was cultivated on MRS agar and incubated in the presence of 5% CO2 for 48 hours at 37° C. […]
# [5] = Clostridioides difficile, CD strain 81
# [6] = Clostridioides difficile, CD strain 82
# [7] = Clostridioides difficile, CD strain 83
# [8] = Clostridioides difficile, CD strain 85
# [9] = Clostridioides difficile, CD strain 86
# [10] = Clostridioides difficile, CD strain 87
# [11] = Clostridioides difficile, CD strain 90
# [12] = Clostridioides difficile, CD strain 49279
# [13] = Clostridioides difficile, CD strain 49287
# [14] = Clostridioides difficile, CD strain 49291
# [15] = Bacteroides fragilis, Ba. fragilis HM 709, read-out: MIC
# [16] = Bacteroides, Ba. dorsei HM 29, read-out: MIC
SMILES,"MIC [1, 5] [µg/mL]","MIC [1, 6] [µg/mL]","MIC [1, 7] [µg/mL]","MIC [1, 8] [µg/mL]","MIC [1, 9] [µg/mL]","MIC [1, 10] [µg/mL]","MIC [1, 11] [µg/mL]","MIC [1, 12] [µg/mL]","MIC [1, 13] [µg/mL]","MIC [1, 14] [µg/mL]",MIC ([2]; CD strain 16) [µg/mL],MIC ([2]; CD strain 18) [µg/mL],MIC ([2]; CD strain 19) [µg/mL],MIC ([2]; CD strain 1801) [µg/mL],MIC ([2]; CD strain 43255) [µg/mL],MIC ([2]; CD strain P6) [µg/mL],MIC ([2]; CD strain P7) [µg/mL],MIC ([2]; CD strain P13) [µg/mL],MIC ([2]; CD strain P19) [µg/mL],MIC (L. gasseri) [µg/mL],further results
"CCc1c(Cl)c(O)c(Cl)c(O)c1C(=O)O[C@H]1[C@H](O)[C@H](OC)[C@H](OC/C2=C\C=C\C[C@H](O)/C(C)=C/[C@H](CC)[C@@H](O[C@@H]3OC(C)(C)[C@@H](OC(=O)C(C)C)[C@H](O)[C@@H]3O)/C(C)=C/C(C)=C/C[C@@H]([C@@H](C)O)OC2=O)O[C@@H]1C [Fidaxomicin, fidaxomicin, reference compound]",0.03,0.3,0.015,0.03,0.06,0.015,≤ 0.007,≤ 0.007,≤ 0.007,≤ 0.007,0.015,≤ 0.007,0.015,0.015,0.03,≤ 0.007,≤ 0.007,≤ 0.007,0.03,1,MIC ([1]; CD strain 84): 0/03; MIC (L. casei): 2 µg/mL; MIC (L. reuteri): 128 µg/mL; MIC (L. crispatus; L. crispatus HM 375): ≤ 1 µg/mL; MIC (L. crispatus; L. crispatus HM 421): 2 µg/mL; MIC (Ba. fragilis; Ba. fragilis HM 710): >128 µg/mL; MIC (Ba. fragilis; Ba. fragilis HM 711): >128 µg/mL; MIC (Ba. fragilis; Ba. fragilis HM 714): >128 µg/mL; MIC (Ba. fragilis; [15]): > 128 µg/mL; MIC (Ba. dorsei; Ba. dorsei HM 717): >128 µg/mL; MIC (Ba. dorsei; [16]): > 128 µg/mL; MIC (Bi. breve): > 128 µg/mL; MIC (Bi. longum): 32 µg/mL; recurrence rate (Clostridioides difficile [3]; infections involving the hypervirulent strains): 24%; recurrence rate (Clostridioides difficile [3]; patients treated for an episode of recurrent C. difficile-associated diarrhea): 20%
"Cc1ncc([N+](=O)[O-])n1CCO [Metronidazole, reference compound]",0.125,0.25,0.25,0.25,0.125,0.125,0.125,0.125,≤ 0.06,0.125,0.25,≤ 0.06,0.125,0.125,0.125,≤ 0.06,0.25,≤ 0.06,0.25,> 128,"MIC (Clostridioides difficile [4]): 0.25 µg/mL; MIC ([1]; Clostridioides difficile, CD strain 84): 0.25 µg/mL; MIC (L. casei): > 128 µg/mL; MIC (L. reuteri): > 128 µg/mL; MIC (L. crispatus; L. crispatus HM 375): > 128 µg/mL; MIC (L. crispatus; L. crispatus HM 421): > 128 µg/mL; MIC (Ba. fragilis; Ba. fragilis HM 710): ≤1 µg/mL; MIC (Ba. fragilis; Ba. fragilis HM 711): ≤1 µg/mL; MIC (Ba. fragilis; Ba. fragilis HM 714): ≤1 µg/mL; MIC (Ba. fragilis; [15]): ≤ 1 µg/mL; MIC (Ba. dorsei; Ba. dorsei HM 717): ≤1 µg/mL; MIC (Ba. dorsei; [16]): ≤ 1 µg/mL; MIC (Bi. breve): ≤ 1 µg/mL; MIC (Bi. longum): 64 µg/mL; inhibition of bacteria of the normal gut microflora (normal gut microflora): inhibited growth of species of Bacteroides and Bifidobacterium"
